Measurements taken from patent US12428458B2, “Therapeutic agent for psoriasis” (StemRIM Inc., priority 2018, dated 2025).

How the values were obtained:
Type in all cases: in vivo, C57BL/6 mice
[1] = test system: psoriasis model mice; experiment: PASI score in imiquimod-induced psoriasis model mice (Example 1)
Excerpt: (§1) In order to induce psoriasis using imiquimod, a cream containing 5% imiquimod (Beselna Cream 5%, manufactured by Mochida Pharmaceutical Co., Ltd.) was used. Imiquimod is represented as IMQ in the drawings corresponding to the Examples of this application. A peptide consisting of amino acid residues 1-44 of the human-derived HMGB1 protein (SEQ ID NO: 1) was chemically synthesized by a solid-phase method. Hereinafter, the HMGB1 fragment peptide is referred to as the HMGB1 peptide (1-44) and is expressed as an abbreviation “1-44” in the drawings corresponding to the Examples.
(§2) C57BL/6 mice (7-week-old, female, body weight about 20 g) were prepared, and the hair on the back was removed. In order to induce psoriasis, the cream containing 5% imiquimod was applied to the dorsal skin of the mice at a dose of 1.25 g/animal/day (62.5 mg/animal/day as imiquimod) once a day for four days. In the following, the day when imiquimod was first applied is represented as “the 1st day of the start of imiquimod application (Day 1)”, and the next day onward is represented as “the Xth day from the start of imiquimod application (Day X)”. That is, the last day that imiquimod was applied was the 4th day from the start of imiquimod application (Day 4), and no application was performed on the 5th day from the start of imiquimod application (Day 5).
The psoriasis model mice produced as described above were divided into the HMGB1 peptide (1-44) administration group (n=3) and the control group (n=3). The test substance was administered by injecting an HMGB1 peptide (1-44) solution, which has been adjusted to a concentration of 1 μg/μl with saline as the vehicle, into the vein at a dose of 100 μl/day (5 mg/kg/day as the peptide dose) for three days from the 1st day of the start of imiquimod application (Day 1). […]
The degree of the symptoms of psoriasis on the dorsal skin of the mice was evaluated by the PASI score for five days from the 1st day of the start of imiquimod application. The PASI score was calculated by quantifying the degree of each of (a) erythema, (b) scaling (desquamation), and (c) thickening (infiltration) of skin using five stages, [no symptoms: 0 points, mild: 1 point, moderate: 2 points, severe: 3 points, and extremely severe: 4 points], and summing up the values of (a), (b), and (c) (minimum 0 points-maximum 12 points).
(a) The erythema score was determined by using the photographs of the back of mice shown in FIG. 1 as a criterion for each score and visually comparing them with the condition of the back of the mice to be evaluated. (b) The scaling score was determined by using the photographs of the back of mice shown in FIG. 2 as a criterion for each score and visually comparing them with the condition of the back of the mice to be evaluated. (c) The thickening score was determined as follows: Two measurement sites were determined on the back of the mice, the skin was pinched and its thickness was measured with a caliper, and the average value from the two sites was recorded daily as the skin thickness (mm). Quantification was carried out by giving 0 points when the value of skin thickness of each day relative to the skin thickness on the 1st day of the start of imiquimod application (before application) was less than 1.1, 1 point when the value was 1.1 or more to less than 1.3, 2 points when the value was 1.3 or more to less than 1.5, 3 points when the value was 1.5 or more to less than 1.7, and 4 points when the value was 1.7 or more.

[2] = test system: psoriasis model mice; experiment: PASI score in imiquimod-induced psoriasis model mice (Example 2); conditions: 5 mg/kg/day i.v. for three days, up to Day 4, vs control group (saline), n=6
Protocol: (§3) The drugs were prepared and the psoriasis model mice were produced in the same way as Example 1. The peptides were administered in the same way as Example 1 except that the number of mice was changed to six in both the HMGB1 peptide (1-44) administration group and the control group.
The degree of the symptoms of psoriasis on the dorsal skin of the mice was evaluated by the PASI score for four days from the 1st day of the start of imiquimod application. The PASI score was calculated in the same manner as Example 1.

[3] = test system: inflammatory cytokines (IL-6, IL-17F, and IL-22); experiment: Expression levels of inflammatory cytokines in dorsal skin by quantitative PCR (Example 1); conditions: mRNA, Day 5, 5 mg/kg/day i.v. for three days, vs control group
Excerpt: as §1, §2
The psoriasis model mice produced as described above were divided into the HMGB1 peptide (1-44) administration group (n=3) and the control group (n=3). […]
(§4) On the 5th day from the start of imiquimod application (Day 5), the dorsal skin of the mice was collected, mRNA was extracted from the skin, and the expression levels of the inflammatory cytokines (IL-6, IL-17F, and IL-22), which are known to be involved in the pathogenesis of psoriasis, were analyzed by quantitative PCR.

[4] = test system: inflammatory cytokines (IL-1β, IL-6, IL-17A, IL-17F, and IL-22); experiment: Expression levels of inflammatory cytokines in dorsal skin by quantitative PCR (Example 2); conditions: mRNA, Day 5, 5 mg/kg/day i.v. for three days, vs control group
Protocol: as §3
as §4, with “application,” for “application (Day 5),”, “(IL-1β, IL-6, IL-17A,” for “(IL-6,”

[5] = 5 mg/kg/day i.v. for three days, up to Day 5, vs control group

HMGB1 peptide (1-44): peptide consisting of amino acid residues 1-44 of the human-derived HMGB1 protein (SEQ ID NO: 1), chemically synthesized by a solid-phase method (MGKGDPKKPRGKMSSYAFFVQTCREEHKKKHPDASVNFSEFSKK)
PASI score ([1]; 5 mg/kg/day i.v. for three days from Day 1, up to Day 5, vs control group (saline), n=3): lower than those in the control group
PASI score on the 5th day from the start of imiquimod application ([1]; 5 mg/kg/day i.v. for three days, Day 5, vs control group (saline), p<0.05, 5 mg/kg/day): significantly lower than that in the control group
erythema score [1, 5]: lower than those in the control group
scaling score [1, 5]: lower than those in the control group
thickening score [1, 5]: lower than those in the control group
PASI score [2]: lower than that in the control group
expression level of IL-6 in the skin [3]: lower than those in the control group
expression level of IL-17F in the skin [3]: lower than those in the control group
expression level of IL-22 in the skin [3]: lower than those in the control group
expression level of IL-1β in the skin [4]: lower than those in the control group
expression level of IL-6 in the skin [4]: lower than those in the control group
expression level of IL-17A in the skin [4]: lower than those in the control group
expression level of IL-17F in the skin [4]: lower than those in the control group
expression level of IL-22 in the skin [4]: lower than those in the control group
